Assay results taken from ChEMBL document CHEMBL2040800 (J Med Chem, 2012).
Active and inactive are the calls of the source. The calls are words filed in the database; no cut-off is given here.

Experiments:
Plasmodium berghei [1] = test: Antimalarial activity against Plasmodium berghei ANKA expressing GFP infected in Sprague-Dawley rat assessed as reduction in parasitemia at 10 mg/kg, po administered as single dose measured on day 3 post-infection by flow cytometry; type: functional; parameters: scale not given: the % may be the effect or the level left
Plasmodium berghei [2] = test: Antimalarial activity against Plasmodium berghei ANKA expressing GFP infected in Sprague-Dawley rat assessed as mean survival days of host at 10 mg/kg, po administered as single dose; type: functional
Plasmodium berghei [3] = test: Antimalarial activity against Plasmodium berghei ANKA expressing GFP infected in Sprague-Dawley rat assessed as reduction in parasitemia at 3 mg/kg, po administered as single dose measured on day 3 post-infection by flow cytometry; type: functional; parameters: scale not given: the % may be the effect or the level left
Plasmodium berghei [4] = test: Antimalarial activity against Plasmodium berghei ANKA expressing GFP infected in Sprague-Dawley rat assessed as mean survival days of host at 3 mg/kg, po administered as single dose; type: functional
Plasmodium berghei [5] = test: Antimalarial activity against Plasmodium berghei ANKA expressing GFP infected in Sprague-Dawley rat assessed as host survival at 3 mg/kg, po administered as single dose measured 6 days post-infection; type: functional, organism-based; parameters: dose 3 mg/kg
[6] = Apparent terminal half life in Sprague-Dawley rat at […], iv; type: ADME, organism-based; parameters: dose 4.7 mg/kg, route intravenous; settings: in vivo, read-out: betat1/2(app) (converted)
[7] = Apparent terminal half life in Sprague-Dawley rat at 5 mg/kg, po; type: ADME, organism-based; parameters: dose 5 mg/kg, route oral; settings: in vivo, read-out: betat1/2(app) (converted)
[8] = Apparent terminal half life in Sprague-Dawley rat at 22.3 mg/kg, po; type: ADME, organism-based; parameters: dose 22.3 mg/kg, route oral; settings: in vivo, read-out: betat1/2(app) (converted)
[9] = Total plasma clearance in Sprague-Dawley rat at […], iv; type: ADME, organism-based; parameters: dose 4.7 mg/kg, route intravenous
[10] = Total blood clearance in Sprague-Dawley rat at […], iv; type: ADME, organism-based; parameters: dose 4.7 mg/kg, route intravenous; settings: whole blood
[11] = Volume of distribution at steady state in Sprague-Dawley rat at […], iv; type: ADME, organism-based; parameters: dose 4.7 mg/kg, route intravenous; settings: in vivo, read-out: Vdss
[12] = Cmax in Sprague-Dawley rat at 5 mg/kg, po; type: ADME, organism-based; parameters: dose 5 mg/kg, route oral; settings: in vivo
[13] = Cmax in Sprague-Dawley rat at 22.3 mg/kg, po; type: ADME, organism-based; parameters: dose 22.3 mg/kg, route oral; settings: in vivo
[14] = Tmax in Sprague-Dawley rat at 5 mg/kg, po; type: ADME, organism-based; parameters: dose 5 mg/kg, route oral; settings: in vivo
[15] = Tmax in Sprague-Dawley rat at 22.3 mg/kg, po; type: ADME, organism-based; parameters: dose 22.3 mg/kg, route oral; settings: in vivo
[16] = AUC (0 to infinity) in Sprague-Dawley rat at […], iv; type: ADME, organism-based; parameters: time infinity, dose 4.7 mg/kg, route intravenous; settings: plasma
[17] = AUC (0 to infinity) in Sprague-Dawley rat at 5 mg/kg, po; type: ADME, organism-based; parameters: time infinity, dose 5 mg/kg, route oral; settings: plasma
[18] = AUC (0 to infinity) in Sprague-Dawley rat at 22.3 mg/kg, po; type: ADME, organism-based; parameters: time infinity, dose 22.3 mg/kg, route oral; settings: plasma
[19] = Oral bioavailability in Sprague-Dawley rat at 5 mg/kg; type: ADME, organism-based; settings: in vivo
[20] = Oral bioavailability in Sprague-Dawley rat at 22.3 mg/kg; type: ADME, organism-based; settings: in vivo
Plasmodium berghei [21] = test: Antimalarial activity against Plasmodium berghei ANKA expressing GFP infected in po dosed Sprague-Dawley rat assessed as reduction in parasitemia administered as single dose measured on day 3 post-infection by flow cytometry; type: functional; settings: 72 h
Plasmodium berghei [22] = test: Antimalarial activity against Plasmodium berghei ANKA expressing GFP infected in Sprague-Dawley rat assessed as reduction in parasitemia at 50 mg/kg, po administered as 4 doses measured on day 4 post-infection by flow cytometry; type: functional; parameters: scale not given: the % may be the effect or the level left
[23] = Partition coefficient, log D of the compound at pH 7.4 by phase gradient HPLC analysis; type: physicochemical; settings: octanol/water
[24] = Half life in human liver microsomes at 1 uM; type: ADME, Microsome
[25] = Intrinsic clearance in human liver microsomes at 1 uM up to 60 mins; type: ADME, Microsome; settings: read-out: CLH
Plasmodium berghei [26] = test: Antimalarial activity against Plasmodium berghei ANKA expressing GFP infected in Sprague-Dawley rat assessed as mean survival days of host at 50 mg/kg, po administered as 4 doses; type: functional
Plasmodium berghei [27] = test: Antimalarial activity against Plasmodium berghei ANKA expressing GFP infected in Sprague-Dawley rat assessed as total cure from parasite at 50 mg/kg, po administered as 4 doses measured on day 30 post-infection by flow cytometry; type: functional, organism-based; parameters: dose 50 mg/kg
Plasmodium berghei [28] = test: Antimalarial activity against Plasmodium berghei ANKA expressing GFP infected in Sprague-Dawley rat assessed as reduction in parasitemia at 100 mg/kg, po administered as single dose measured on day 3 post-infection by flow cytometry; type: functional; parameters: scale not given: the % may be the effect or the level left
Plasmodium berghei [29] = test: Antimalarial activity against Plasmodium berghei ANKA expressing GFP infected in Sprague-Dawley rat assessed as mean survival days of host at 100 mg/kg, po administered as single dose; type: functional
Plasmodium berghei [30] = test: Antimalarial activity against Plasmodium berghei ANKA expressing GFP infected in Sprague-Dawley rat assessed as reduction in parasitemia at 30 mg/kg, po administered as single dose measured on day 3 post-infection by flow cytometry; type: functional; parameters: scale not given: the % may be the effect or the level left
Plasmodium berghei [31] = test: Antimalarial activity against Plasmodium berghei ANKA expressing GFP infected in Sprague-Dawley rat assessed as mean survival days of host at 30 mg/kg, po administered as single dose; type: functional
Rattus norvegicus [32] = test: Toxicity in Sprague-Dawley rat assessed as impaired coordination at 50 mg/kg, po administered as 4 doses measured post-third dose; type: organism-based; parameters: dose 50 mg/kg, route oral; settings: in vivo
Rattus norvegicus [33] = test: Toxicity in Sprague-Dawley rat assessed as impaired coordination at 30 mg/kg, po administered as single dose; type: organism-based; parameters: dose 30 mg/kg, route oral; settings: in vivo
[34] = Apparent terminal half life in Sprague-Dawley rat at 21.7 mg/kg, po; type: ADME, organism-based; parameters: dose 21.7 mg/kg, route oral; settings: in vivo, read-out: betat1/2(app) (converted)
[35] = Cmax in Sprague-Dawley rat at 21.7 mg/kg, po; type: ADME, organism-based; parameters: dose 21.7 mg/kg, route oral; settings: in vivo
[36] = Tmax in Sprague-Dawley rat at 21.7 mg/kg, po; type: ADME, organism-based; parameters: dose 21.7 mg/kg, route oral; settings: in vivo
[37] = AUC (0 to infinity) in Sprague-Dawley rat at 21.7 mg/kg, po; type: ADME, organism-based; parameters: time infinity, dose 21.7 mg/kg, route oral; settings: plasma
[38] = Oral bioavailability in Sprague-Dawley rat at 21.7 mg/kg; type: ADME, organism-based; settings: in vivo
Plasmodium falciparum [39] = test: Antimalarial activity against chloroquine-resistant Plasmodium falciparum K1 after 24 hrs by hypoxanthine incorporation assay; type: functional, organism-based; settings: K1, 24 h
Plasmodium falciparum [40] = test: Antimalarial activity against chloroquine-sensitive Plasmodium falciparum NF54 after 24 hrs by hypoxanthine incorporation assay; type: functional, organism-based; settings: NF54, 24 h
[41] = Kinetic solubility of the compound in phosphate buffer after 30 mins by nephelometry at pH 6.5; type: physicochemical; settings: read-out: Kinetic_solubility
[42] = Plasma protein binding in human by reverse phase gradient HPLC analysis; type: ADME, cell-free; settings: read-out: PPB (converted)

COc1ccc(-c2cc(-c3ccc(S(C)(=O)=O)cc3)cnc2N)cn1
Activity (Plasmodium berghei [1]): 82%
MSD (Plasmodium berghei [2]): 7 days
Activity (Plasmodium berghei [3]): <40%
MSD (Plasmodium berghei [4]): 3 days
Activity (Plasmodium berghei [5]): inactive
half-life [6]: 8 h
half-life [7]: 6.7 h
half-life [8]: 6.5 h
clearance [9]: 16.7 mL/min/kg
clearance [10]: 18.3 mL/min/kg
Vd [11]: 4.3 L/kg
Cmax [12]: 5.4 µM
Cmax [13]: 21 µM
Tmax [14]: 0.25 h
Tmax [15]: 1.75 h
AUC(0-inf) [16]: 13.2 µM·h
AUC(0-inf) [17]: 11.8 µM·h
AUC(0-inf) [18]: 115 µM·h
bioavailability [19]: 83%
bioavailability [20]: > 100%
ED50 (Plasmodium berghei [21]): 4.7 mg/kg
ED90 (Plasmodium berghei [21]): 17 mg/kg
Activity (Plasmodium berghei [22]): 99.8%
chromatographic logD [23]: 2.2
half-life at 1 µM [24]: > 1.65 h
microsomal CLint at 1 µM [25]: < 28 µL/min/mg
MSD (Plasmodium berghei [26]): >30 days
Activity (Plasmodium berghei [27]): Active
Activity (Plasmodium berghei [28]): >99.3%
MSD (Plasmodium berghei [29]): 21 days
Activity (Plasmodium berghei [30]): 99%
MSD (Plasmodium berghei [31]): 8 days

CS(=O)(=O)c1ccc(-c2cnc(N)c(-c3ccc(C(F)(F)F)cc3)c2)cc1
Activity (Plasmodium berghei [1]): 98%
MSD (Plasmodium berghei [2]): 9 days
Activity (Rattus norvegicus [32]): Toxic
Activity (Rattus norvegicus [33]): Non-toxic
half-life [6]: 11.3 h
half-life [34]: 6 h
clearance [9]: 29 mL/min/kg
Vd [11]: 8 L/kg
Cmax [35]: 1 µM
Tmax [36]: 3.25 h
AUC(0-inf) [16]: 6.98 µM·h
AUC(0-inf) [37]: 8.27 µM·h
bioavailability [38]: 26%
IC50 (Plasmodium falciparum [39]): 20 nM
IC50 (Plasmodium falciparum [40]): 19 nM
chromatographic logD [23]: 3.4
solubility kinetic at 0.5 h [41]: < 1.6 µg/mL
fraction unbound [42]: 0.038
half-life at 1 µM [24]: > 4.17 h
microsomal CLint at 1 µM [25]: < 7 µL/min/mg
Activity (Plasmodium berghei [30]): 97.3%
MSD (Plasmodium berghei [31]): 15 days
